# Measured values taken from patent publication US20100010219A1, “METHOD FOR PRODUCING PYRROLIDINE COMPOUND” (JAPAN TOBACCO INC., priority 2006, published 2010).
# Counter-ions that a name gives are not always drawn.
# Target: T1, human HSD-1 (recombinant HSD-1) (Homo sapiens, UniProt P28845)
# T1 construct: made in house
# Test: HSD-1 activity inhibitory action in vitro (SPA, conversion of cortisone to cortisol)
# Format: biochemical
# Conditions: recombinant human HSD-1 expressed using baculovirus system; 10 nM 3H cortisone, 500 μM NADPH; room temperature 90 to 120 min; read-out: hHSD1 (IC50 (nM))
# T1 sequence (P28845 whole entry): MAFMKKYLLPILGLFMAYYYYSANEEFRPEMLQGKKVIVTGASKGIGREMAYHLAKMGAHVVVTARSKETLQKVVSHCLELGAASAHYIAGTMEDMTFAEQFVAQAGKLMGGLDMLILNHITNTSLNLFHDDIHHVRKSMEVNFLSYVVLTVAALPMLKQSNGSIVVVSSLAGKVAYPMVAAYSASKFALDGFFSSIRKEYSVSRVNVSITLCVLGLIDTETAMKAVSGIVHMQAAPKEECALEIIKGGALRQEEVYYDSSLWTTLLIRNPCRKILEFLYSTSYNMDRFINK
row,IC50 [nM],SMILES
1,< 30,"CC(=O)NCC(=O)N1CCC(n2ncc(C(=O)N3CC[C@@H](c4ccccc4C(F)(F)F)C3)c2C2CC2)CC1 [Example 68, 1-{1-[1-(2-acetylaminoacetyl)piperidin-4-yl]-5-cyclopropyl-1H-pyrazole-4-carbonyl}-[(S)-3-(2-trifluoromethylphenyl)]pyrrolidine]"
2,< 30,"CC1(C)C(c2c(C(=O)N3CCC(c4cccnc4)C3)cnn2C2CCN(C(=O)Nc3ccccc3F)CC2)C1(C)C (stereo not shown) [Example 138, 1-{1-[1-(2-fluorophenylcarbamoyl)piperidin-4-yl]-5-(2,2,3,3-tetramethylcyclopropyl)-1H-pyrazole-4-carbonyl}-3-(pyridin-3-yl)pyrrolidine]"
3,< 30,"CC(C)[C@H](N)C(=O)N1CCC(n2ncc(C(=O)N3CC[C@@H](c4ccccc4C(F)(F)F)C3)c2C2CC2)CC1 [Example 84, 1-(1-{1-[(S)-2-amino-3-methylbutyryl]piperidin-4-yl}-5-cyclopropyl-1H-pyrazole-4-carbonyl)-[(S)-3-(2-trifluoromethylphenyl)]pyrrolidine hydrochloride]"
4,< 30,"CC1(c2c(C(=O)N3CCC(c4ccccc4)(C(F)(F)F)C3)cnn2C2CCN(C(=O)Nc3ccccc3F)CC2)CC1 (stereo not shown) [Example 135, 1-{1-[1-(2-fluorophenylcarbamoyl)piperidin-4-yl]-5-(1-methylcyclopropyl)-1H-pyrazole-4-carbonyl}-3-phenyl-3-trifluoromethylpyrrolidine]"
5,< 30,"C[C@@H](CO)NC(=O)N1CCC(n2ncc(C(=O)N3CC[C@@H](c4ccccc4C(F)(F)F)C3)c2C2CC2)CC1 [Example 23, 1-(5-cyclopropyl-1-{1-[(S)-2-hydroxy-1-methylethylcarbamoyl]piperidin-4-yl}-1H-pyrazole-4-carbonyl)-[(S)-3-(2-trifluoromethylphenyl)]pyrrolidine]"
6,< 30,"O=C(c1ccccc1Cl)N1CCC(n2ncc(C(=O)N3CCC(c4cccnc4)C3)c2C2CC2)CC1 (stereo not shown) [Example 157, 1-{1-[1-(2-chlorobenzoyl)piperidin-4-yl]-5-cyclopropyl-1H-pyrazole-4-carbonyl}-3-(pyridin-3-yl)pyrrolidine]"
7,< 30,"CC1(c2c(C(=O)N3CCC(c4cccnc4)C3)cnn2C2CCN(C(=O)N3CCc4ccccc43)CC2)CC1 (stereo not shown) [Example 148, 1-{1-[1-(2,3-dihydroindole-1-carbonyl)piperidin-4-yl]-5-(1-methylcyclopropyl)-1H-pyrazole-4-carbonyl}-3-(pyridin-3-yl)pyrrolidine]"
8,< 30,"CC(=O)N[C@H](C(=O)N1CCC(n2ncc(C(=O)N3CC[C@@H](c4ccccc4C(F)(F)F)C3)c2C2CC2)CC1)C(C)C [Example 72, 1-(1-{1-[(S)-2-acetylamino-3-methylbutyryl]piperidin-4-yl}-5-cyclopropyl-1H-pyrazole-4-carbonyl)-[(S)-3-(2-trifluoromethylphenyl)]pyrrolidine]"
9,< 30,"O=C(c1cnn(C2CCN(C(=O)C3CC3)CC2)c1C1CC1)N1CC[C@@H](c2ccccc2C(F)(F)F)C1 [Example 64, 1-[1-(1-cyclopropanecarbonylpiperidin-4-yl)-5-cyclopropyl-1H-pyrazole-4-carbonyl]-[(S)-3-(2-trifluoromethylphenyl)]pyrrolidine]"
10,< 30,"CC(=O)N[C@@H](C)C(=O)N1CCC(n2ncc(C(=O)N3CC[C@@H](c4ccccc4C(F)(F)F)C3)c2C2CC2)CC1 [Example 71, 1-(1-{1-[(S)-2-acetylaminopropionyl]piperidin-4-yl}-5-cyclopropyl-1H-pyrazole-4-carbonyl)-[(S)-3-(2-trifluoromethylphenyl)]pyrrolidine]"

# Continued, molecule first:
row,SMILES,IC50 [nM]
1,"CC(C)[C@@H](C(=O)O)N(C)C(=O)[C@H]1CC[C@H](n2ncc(C(=O)N3CCC(c4ccccc4C(F)(F)F)C3)c2C2CC2)CC1 (stereo partly drawn) [Example 189, (S)-2-[(trans-4-{5-cyclopropyl-4-[3-(2-trifluoromethylphenyl)pyrrolidine-1-carbonyl]pyrazol-1-yl}cyclohexanecarbonyl)methylamino]-3-methylbutyric acid]",< 30
2,"CC(=O)N1CCC[C@H]1C(=O)N1CCC(n2ncc(C(=O)N3CC[C@@H](c4ccccc4C(F)(F)F)C3)c2C2CC2)CC1 [Example 89, 1-(1-{1-[(S)-1-acetylpyrrolidine-2-carbonyl]piperidin-4-yl}-5-cyclopropyl-1H-pyrazole-4-carbonyl)-[(S)-3-(2-trifluoromethylphenyl)]pyrrolidine]",< 30
3,"COCC1(c2ccccc2)CCN(C(=O)c2cnn(C3CCN(c4ccc(Cl)cn4)CC3)c2C2(C)CC2)C1 (stereo not shown) [Example 174, 1-{1-[1-(5-chloropyridin-2-yl)piperidin-4-yl]-5-(1-methylcyclopropyl)-1H-pyrazole-4-carbonyl}-3-methoxymethyl-3-phenylpyrrolidine]",< 30
4,"O=C(c1cnn(C2CCN(C(=O)N3CCC(CO)CC3)CC2)c1C1CC1)N1CC[C@@H](c2ccccc2C(F)(F)F)C1 [Example 24, 1-{5-cyclopropyl-1-[1-(4-hydroxymethylpiperidine-1-carbonyl)piperidin-4-yl]-1H-pyrazole-4-carbonyl}-[(S)-3-(2-trifluoromethylphenyl)]pyrrolidine]",< 30
5,"O=C(O)c1ccc(N2CCC(n3ncc(C(=O)N4CCC(c5ccccc5C(F)(F)F)C4)c3C3CC3)CC2)c(F)c1 (stereo not shown) [Example 183, Sodium 4-(4-{5-cyclopropyl-4-[3-(2-trifluoromethylphenyl)pyrrolidine-1-carbonyl]pyrazol-1-yl}piperidin-1-yl)-3-fluorobenzoate]",< 30
6,"O=C(c1cnn(C2CCN(C(=O)N3CC(CO)C3)CC2)c1C1CC1)N1CC[C@@H](c2ccccc2C(F)(F)F)C1 [Example 28, 1-{5-cyclopropyl-1-[1-(3-hydroxymethylazetidine-1-carbonyl)piperidin-4-yl]-1H-pyrazole-4-carbonyl}-[(S)-3-(2-trifluoromethylphenyl)]pyrrolidine]",< 30
7,"O=C(c1cnn(C2CCN(c3ccc(CO)cc3)CC2)c1C1CC1)N1CCC(c2ccccc2C(F)(F)F)C1 (stereo not shown) [Example 166, 1-{5-cyclopropyl-1-[1-(4-hydroxymethylphenyl)piperidin-4-yl]-1H-pyrazole-4-carbonyl}-3-(2-trifluoromethylphenyl)pyrrolidine]",< 30
8,"O=C(c1cnn(C2CCN(C(=O)N3CC[C@H](O)C3)CC2)c1C1CC1)N1CC[C@@H](c2ccccc2C(F)(F)F)C1 [Example 22, 1-(5-cyclopropyl-1-{1-[(S)-3-hydroxypyrrolidine-1-carbonyl]piperidin-4-yl}-1H-pyrazole-4-carbonyl)-[(S)-3-(2-trifluoromethylphenyl)]pyrrolidine]",< 30
9,"O=C(CC(F)(F)F)N1CCC(n2ncc(C(=O)N3CC[C@@H](c4ccccc4C(F)(F)F)C3)c2C2CC2)CC1 [Example 73, 1-{5-cyclopropyl-1-[1-(3,3,3-trifluoropropionyl)piperidin-4-yl]-1H-pyrazole-4-carbonyl}-[(S)-3-(2-trifluoromethylphenyl)]pyrrolidine]",< 30
10,"O=C(c1cnn(C2CCN(C(=O)N3CCC3)CC2)c1C1CC1)N1CC[C@@H](c2ccccc2C(F)(F)F)C1 [Example 15, 1-{1-[1-(azetidine-1-carbonyl)piperidin-4-yl]-5-cyclopropyl-1H-pyrazole-4-carbonyl}-[(S)-3-(2-trifluoromethylphenyl)]pyrrolidine]",< 30
11,"CC(=O)NCCC(=O)N1CCC(n2ncc(C(=O)N3CC[C@@H](c4ccccc4C(F)(F)F)C3)c2C2CC2)CC1 [Example 75, 1-{1-[1-(3-acetylaminopropionyl)piperidin-4-yl]-5-cyclopropyl-1H-pyrazole-4-carbonyl}-[(S)-3-(2-trifluoromethylphenyl)]pyrrolidine]",< 30
12,"O=C(CCCO)N1CCC(n2ncc(C(=O)N3CC[C@@H](c4ccccc4C(F)(F)F)C3)c2C2CC2)CC1 [Example 80, 1-{5-cyclopropyl-1-[1-(4-hydroxybutyryl)piperidin-4-yl]-1H-pyrazole-4-carbonyl}-[(S)-3-(2-trifluoromethylphenyl)]pyrrolidine]",< 30
13,"O=C(O)C1CCN(C(=O)N2CCC(n3ncc(C(=O)N4CC[C@@H](c5ccccc5C(F)(F)F)C4)c3C3CC3)CC2)CC1 [Example 25, 1-{1-[1-(4-carboxypiperidine-1-carbonyl)piperidin-4-yl]-5-cyclopropyl-1H-pyrazole-4-carbonyl}-[(S)-3-(2-trifluoromethylphenyl)]pyrrolidine]",< 30
14,"CC(=O)N1CCN(C(=O)N2CCC(n3ncc(C(=O)N4CC[C@@H](c5ccccc5C(F)(F)F)C4)c3C3CC3)CC2)CC1 [Example 31, 1-{1-[1-(4-acetylpiperazine-1-carbonyl)piperidin-4-yl]-5-cyclopropyl-1H-pyrazole-4-carbonyl}-[(S)-3-(2-trifluoromethylphenyl)]pyrrolidine]",< 30
15,"O=C(NC1(CO)CCCC1)N1CCC(n2ncc(C(=O)N3CC[C@@H](c4ccccc4C(F)(F)F)C3)c2C2CC2)CC1 [Example 54, 1-{5-cyclopropyl-1-[1-(1-hydroxymethylcyclopentylcarbamoyl)piperidin-4-yl]-1H-pyrazole-4-carbonyl}-[(S)-3-(2-trifluoromethylphenyl)]pyrrolidine]",< 30
16,"N#Cc1ccc(N2CCC(n3ncc(C(=O)N4CCC(c5ccccc5C(F)(F)F)C4)c3C3CC3)CC2)nc1 (stereo not shown) [Example 175, 1-{1-[1-(5-cyanopyridin-2-yl)piperidin-4-yl]-5-cyclopropyl-1H-pyrazole-4-carbonyl}-3-(2-trifluoromethylphenyl)pyrrolidine]",< 30
17,"CC(=O)NC1CN(C(=O)N2CCC(n3ncc(C(=O)N4CC[C@@H](c5ccccc5C(F)(F)F)C4)c3C3CC3)CC2)C1 [Example 45, 1-{1-[1-(3-acetylaminoazetidine-1-carbonyl)piperidin-4-yl]-5-cyclopropyl-1H-pyrazole-4-carbonyl}-[(S)-3-(2-trifluoromethylphenyl)]pyrrolidine]",< 30
18,"O=C(c1cnn(C2CCN(c3n[nH]c(C4CC4)n3)CC2)c1C1CC1)N1CC[C@@H](c2ccccc2C(F)(F)F)C1 [Example 118, 1-{5-cyclopropyl-1-[1-(5-cyclopropyl-4H-[1,2,4]triazol-3-yl)piperidin-4-yl]-1H-pyrazole-4-carbonyl}-[(S)-3-(2-trifluoromethylphenyl)]pyrrolidine hydrochloride]",< 30
